Measurements published in patent publication US8563542B2 (Cyclacel Limited, priority 2007, dated 2013).

target: PLK1 (Homo sapiens, UniProt P53350); test: PLK1 protein kinase assay (CDC25C phosphorylation, [γ-32P]-ATP); format: biochemical; settings: Table 2, PLK1 IC50; class symbols; read-out: PLK1 IC50
Sequence (P53350 whole entry): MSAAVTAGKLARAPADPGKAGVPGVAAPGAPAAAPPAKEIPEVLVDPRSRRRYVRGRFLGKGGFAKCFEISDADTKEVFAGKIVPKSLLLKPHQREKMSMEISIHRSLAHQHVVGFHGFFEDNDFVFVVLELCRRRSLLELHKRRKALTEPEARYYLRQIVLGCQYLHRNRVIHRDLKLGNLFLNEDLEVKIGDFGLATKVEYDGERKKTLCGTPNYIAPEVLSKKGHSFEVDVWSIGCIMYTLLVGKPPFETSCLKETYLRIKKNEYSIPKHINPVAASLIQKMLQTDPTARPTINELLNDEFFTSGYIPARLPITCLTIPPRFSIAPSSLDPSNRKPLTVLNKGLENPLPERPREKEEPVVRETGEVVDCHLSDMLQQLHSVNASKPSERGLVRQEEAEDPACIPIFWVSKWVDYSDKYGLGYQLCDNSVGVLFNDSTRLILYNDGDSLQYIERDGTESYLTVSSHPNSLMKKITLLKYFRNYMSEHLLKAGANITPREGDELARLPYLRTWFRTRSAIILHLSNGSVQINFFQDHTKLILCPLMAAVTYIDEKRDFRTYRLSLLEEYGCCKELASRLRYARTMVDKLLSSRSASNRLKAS

| Compound | IC50 |
| --- | --- |
| COc1ccc(C(=O)NCC2CCCCN2C)cc1Nc1ncc2c(n1)N(C1CCCC1)CCC(=O)N2C (stereo not drawn) [compound 269, 3-(9-Cyclopentyl-5-methyl-6-oxo-6,7,8,9-tetrahydro-5H-pyrimido[4,5-b][1,4]diazepin-2-ylamino)-4-methoxy-N-(1-methyl-piperidin-2-ylmethyl)-benzamide] | < 1 µM |
| COCCNC(=O)c1ccc(OC)c(Nc2ncc3c(n2)N(C2CCCC2)CCC(=O)N3C)c1 [compound 270, 3-(9-Cyclopentyl-5-methyl-6-oxo-6,7,8,9-tetrahydro-5H-pyrimido[4,5-b][1,4]diazepin-2-ylamino)-4-methoxy-N-(2-methoxy-ethyl)-benzamide] | < 1 µM |
| COc1ccc(C(=O)NC2CCN(Cc3ccccc3)CC2)cc1Nc1ncc2c(n1)N(C1CCCC1)CCC(=O)N2C [compound 271, N-(1-Benzyl-piperidin-4-yl)-3-(9-cyclopentyl-5-methyl-6-oxo-6,7,8,9-tetrahydro-5H-pyrimido[4,5-b][1,4]diazepin-2-ylamino)-4-methoxy-benzamide] | < 1 µM |
| COc1ccc(C(=O)NCCCCO)cc1Nc1ncc2c(n1)N(C1CCCC1)CCC(=O)N2C [compound 272, 3-(9-Cyclopentyl-5-methyl-6-oxo-6,7,8,9-tetrahydro-5H-pyrimido[4,5-b][1,4]diazepin-2-ylamino)-N-(4-hydroxy-butyl)-4-methoxy-benzamide] | < 1 µM |
| COc1ccc(C(=O)NCc2ccco2)cc1Nc1ncc2c(n1)N(C1CCCC1)CCC(=O)N2C [compound 273, 3-(9-Cyclopentyl-5-methyl-6-oxo-6,7,8,9-tetrahydro-5H-pyrimido[4,5-b][1,4]diazepin-2-ylamino)-N-furan-2-ylmethyl-4-methoxy-benzamide] | < 1 µM |
| CN1CCC(NC(=O)c2ccc(Nc3ncc4c(n3)N(C3CCCC3)CC3(CC3)C(=O)N4C)c(O)c2)CC1 [compound 274, 4-(9-Cyclopentyl-5-methyl-6-oxo-6,7,8,9-tetrahydro-5H-spiro[pyrimido[4,5-b][1,4]diazepin-3,1′-cyclopropane]-2-ylamino)-3-hydroxy-N-(1-methyl-piperidin-4-yl)-benzamide] | < 1 µM |
| COc1cc(C(=O)O)ccc1Nc1ncc2c(n1)N(CC1CC1)CC(C)(C)C(=O)N2C [compound 275, 4-(9-Cyclopropylmethyl-5,7,7-trimethyl-6-oxo-6,7,8,9-tetrahydro-5H-pyrimido[4,5-b][1,4]diazepin-2-ylamino)-3-methoxy-benzoic acid] | < 1 µM |
| COc1cc(C(=O)NC2CN3CCC2CC3)ccc1Nc1ncc2c(n1)N(c1ccccc1OC)CCC(=O)N2C (stereo not drawn) [compound 279, N-(1-Aza-bicyclo[2.2.2]oct-3-yl)-3-methoxy-4-[9-(2-methoxy-phenyl)-5-methyl-6-oxo-6,7,8,9-tetrahydro-5H-pyrimido[4,5-b][1,4]diazepin-2-ylamino]-benzamide] | < 10 µM |
| COc1cc(C(=O)NC2CN3CCC2CC3)ccc1Nc1ncc2c(n1)N(CC(C)C)CCC(=O)N2C (stereo not drawn) [compound 305, N-(1-Aza-bicyclo[2.2.2]oct-3-yl)-4-(9-isobutyl-5-methyl-6-oxo-6,7,8,9-tetrahydro-5H-pyrimido[4,5-b][1,4]diazepin-2-ylamino)-3-methoxy-benzamide] | < 1 µM |

Results, then the compound that gave them:

| IC50 | Compound |
| --- | --- |
| < 1 µM | COc1cc(C(=O)NC2CCN(C)CC2)ccc1Nc1ncc2c(n1)N(CC1CC1)CC(C)(C)C(=O)N2C [compound 276, 4-(9-Cyclopropylmethyl-5,7,7-trimethyl-6-oxo-6,7,8,9-tetrahydro-5H-pyrimido[4,5-b][1,4]diazepin-2-ylamino)-3-methoxy-N-(1-methyl-piperidin-4-yl)-benzamide] |
| < 10 µM | COc1cc(C(=O)NC2CCN(C)CC2)ccc1Nc1ncc2c(n1)N(c1ccccc1OC)CCC(=O)N2C [compound 277, 3-Methoxy-4-[9-(2-methoxy-phenyl)-5-methyl-6-oxo-6,7,8,9-tetrahydro-5H-pyrimido[4,5-b][1,4]diazepin-2-ylamino]-N-(1-methyl-piperidin-4-yl)-benzamide] |
| < 10 µM | COc1cc(C(=O)NC2CC(C)(C)N(C)C(C)(C)C2)ccc1Nc1ncc2c(n1)N(c1ccccc1OC)CCC(=O)N2C [compound 278, 3-Methoxy-4-[9-(2-methoxy-phenyl)-5-methyl-6-oxo-6,7,8,9-tetrahydro-5H-pyrimido[4,5-b][1,4]diazepin-2-ylamino]-N-(1,2,2,6,6-pentamethyl-piperidin-4-yl)-benzamide] |
| < 10 µM | Cc1cc(C(=O)O)ccc1Nc1ncc2c(n1)N(C1CCCC1)CC1(CC1)C(=O)N2C [compound 280, 4-(9-Cyclopentyl-5-methyl-6-oxo-6,7,8,9-tetrahydro-5H-pyrimido[4,5-b][1,4]diazepin-3,1′-cyclopropane-2-ylamino)-3-methyl-benzoic acid] |
| < 0.1 µM | CN1C(=O)C2(CC2)CN(C2CCCC2)c2nc(Nc3ccc(C(=O)O)cc3F)ncc21 [compound 283, 4-(9-Cyclopentyl-5-methyl-6-oxo-6,7,8,9-tetrahydro-5H-spiro[pyrimido[4,5-b][1,4]diazepin-3,1′-cyclopropane]-2-ylamino)-3-fluorobenzoic acid] |
| < 0.1 µM | CN1CCC(NC(=O)c2ccc(Nc3ncc4c(n3)N(C3CCCC3)CC3(CC3)C(=O)N4C)c(OC(F)(F)F)c2)CC1 [compound 284, 4-(9-Cyclopentyl-5-methyl-6-oxo-6,7,8,9-tetrahydro-5H-spiro[pyrimido[4,5-b][1,4]diazepin-3,1′-cyclopropane]-2-ylamino)-3-trifluoromethoxy-N-(1-methyl-piperidin-4-yl)-benzamide] |
| < 1 µM | Cc1cc(C(=O)NC2CCN(C)CC2)ccc1Nc1ncc2c(n1)N(C1CCCC1)CC1(CC1)C(=O)N2C [compound 301] |
| < 1 µM | COc1cc(C(=O)NC2CCN(C)CC2)ccc1Nc1ncc2c(n1)N(CC(C)C)CCC(=O)N2C [compound 302, 4-(9-Isobutyl-5-methyl-6-oxo-6,7,8,9-tetrahydro-5H-pyrimido[4,5-b][1,4]diazepin-2-ylamino)-3-methoxy-N-(1-methyl-piperidin-4-yl)-benzamide] |
| < 1 µM | COc1cc(C(=O)NC2CCCN(C)C2)ccc1Nc1ncc2c(n1)N(CC(C)C)CCC(=O)N2C (stereo not drawn) [compound 303, 4-(9-Isobutyl-5-methyl-6-oxo-6,7,8,9-tetrahydro-5H-pyrimido[4,5-b][1,4]diazepin-2-ylamino)-3-methoxy-N-(1-methyl-piperidin-3-yl)-benzamide] |
| < 1 µM | COc1cc(C(=O)NC2CCN(Cc3ccccc3)CC2)ccc1Nc1ncc2c(n1)N(CC(C)C)CCC(=O)N2C [compound 304, N-(1-Benzyl-piperidin-4-yl)-4-(9-isobutyl-5-methyl-6-oxo-6,7,8,9-tetrahydro-5H-pyrimido[4,5-b][1,4]diazepin-2-ylamino)-3-methoxy-benzamide] |
| < 1 µM | COc1cc(C(=O)NC2CC(C)(C)N(C)C(C)(C)C2)ccc1Nc1ncc2c(n1)N(CC(C)C)CCC(=O)N2C [compound 306, 4-(9-Isobutyl-5-methyl-6-oxo-6,7,8,9-tetrahydro-5H-pyrimido[4,5-b][1,4]diazepin-2-ylamino)-3-methoxy-N-(1,2,2,6,6-pentamethyl-piperidin-4-yl)-benzamide] |
| < 1 µM | CCN(CC)CCNC(=O)c1ccc(Nc2ncc3c(n2)N(CC(C)C)CCC(=O)N3C)c(OC)c1 [compound 307, N-(2-Diethylamino-ethyl)-4-(9-isobutyl-5-methyl-6-oxo-6,7,8,9-tetrahydro-5H-pyrimido[4,5-b][1,4]diazepin-2-ylamino)-3-methoxy-benzamide] |
